Read-outs that look alike come from different tables or passages of the source.
Assays:
Zymoseptoria tritici = assay: Leaf Blotch of Wheat fungicidal activity (SEPTTR); assay type: in vivo; conditions: for pest or weed control at 121.5 g/ha: Low Volume Cereal Activity at 121.5 g/Ha; for pest or weed control at 100 ppm: wheat, high volume
Puccinia triticina = assay: Wheat Brown Rust fungicidal activity (PUCCRT); assay type: in vivo; conditions: for pest or weed control at 121.5 g/ha: Low Volume Cereal Activity at 121.5 g/Ha; for pest or weed control at 100 ppm: wheat, high volume
[1] = 24 h, 1 Day Protectant, read-out: SEPTTR 1DP (Wheat Leaf Blotch, 1 Day Protectant)
[2] = 72 h, 3 Day Curative, read-out: SEPTTR 3DC (Wheat Leaf Blotch, 3 Day Curative)
[3] = 24 h, 1 Day Protectant, read-out: PUCCRT 1DP (Wheat Brown Rust, 1 Day Protectant)
[4] = 72 h, 3 Day Curative, read-out: PUCCRT 3DC (Wheat Brown Rust, 3 Day Curative)
[5] = 24 h, 1 Day Protectant, read-out: SEPTTR 1DP % Control rating
[6] = 72 h, 3 Day Curative, read-out: SEPTTR 3DC % Control rating
[7] = 24 h, 1 Day Protectant, read-out: PUCCRT 1DP % Control rating
[8] = 72 h, 3 Day Curative, read-out: PUCCRT 3DC % Control rating

SMILES | pest or weed control at 121.5 g/ha (Zymoseptoria tritici; [1]) | pest or weed control at 121.5 g/ha (Zymoseptoria tritici; [2]) | pest or weed control at 121.5 g/ha (Puccinia triticina; [3]) | pest or weed control at 121.5 g/ha (Puccinia triticina; [4]) | pest or weed control at 100 ppm (Zymoseptoria tritici; [5]) | pest or weed control at 100 ppm (Zymoseptoria tritici; [6]) | pest or weed control at 100 ppm (Puccinia triticina; [7]) | pest or weed control at 100 ppm (Puccinia triticina; [8])
COc1ccnc(C(=O)N[C@@H](C)C(=O)O[C@@H](C)[C@H](Oc2ccc(C)cc2Cl)c2ccccc2)c1OCOC(C)=O [Example 244] | > 80% | > 80% | > 80% | < 80% |  |  |  | 
COc1ccnc(C(=O)N[C@@H](C)C(=O)O[C@@H](C)[C@H](Oc2ccc(C)cc2Cl)c2ccc(F)cc2)c1OCOC(C)=O [Example 245] | > 80% | > 80% | > 80% | < 80% |  |  |  | 
COc1ccnc(C(=O)N[C@@H](C)C(=O)O[C@@H](C)[C@H](Oc2ccc(C)cc2)c2ccccc2)c1OC(C)=O [Example 246] | > 80% | > 80% | > 80% | > 80% |  |  |  | 
COc1ccnc(C(=O)N[C@@H](C)C(=O)O[C@@H](C)[C@H](Oc2ccc(C)cc2)c2ccc(F)cc2)c1OC(C)=O [Example 247] | > 80% | > 80% | > 80% | > 80% |  |  |  | 
COc1ccnc(C(=O)N[C@@H](C)C(=O)O[C@@H](C)[C@H](Oc2ccc(C)cc2)c2ccccc2)c1OCOC(C)=O [Example 248] | > 80% | > 80% | > 80% | > 80% |  |  |  | 
COc1ccnc(C(=O)N[C@@H](C)C(=O)O[C@@H](C)[C@H](Oc2ccc(C)cc2)c2ccc(F)cc2)c1OCOC(C)=O [Example 249] | > 80% | > 80% | > 80% | > 80% |  |  |  | 
COc1ccnc(C(=O)N[C@@H](C)C(=O)O[C@@H](C)[C@H](Oc2ccccc2)c2ccc(F)cc2F)c1OC(C)=O [Example 251] | > 80% | > 80% | > 80% | > 80% |  |  |  | 
COc1ccnc(C(=O)N[C@@H](C)C(=O)O[C@@H](C)[C@H](Oc2ccc(F)cc2)c2ccc(C)cc2)c1OCOC(C)=O [Example 253] | > 80% | > 80% | > 80% | > 80% |  |  |  | 
COc1ccnc(C(=O)N[C@@H](C)C(=O)O[C@@H](C)[C@H](Oc2ccc(F)cc2)c2ccc(F)cc2)c1OCOC(C)=O [Example 254] | > 80% | > 80% | > 80% | > 80% |  |  |  | 
COc1ccnc(C(=O)N[C@@H](C)C(=O)O[C@@H](C)[C@H](Oc2ccc(C)cc2)c2ccc(C)cc2)c1OCOC(C)=O [Example 257] | > 80% | > 80% | > 80% | > 80% |  |  |  | 
COc1cccc([C@@H](Oc2ccccc2)[C@H](C)OC(=O)[C@H](C)NC(=O)c2nccc(OC)c2OCOC(C)=O)c1 [Example 258] | > 80% | > 80% | > 80% | > 80% |  |  |  | 
COc1cc(F)ccc1[C@@H](OCC(F)F)[C@H](C)OC(=O)[C@H](C)NC(=O)c1nccc(OC)c1O [Example 288] |  |  |  |  | < 80% | > 80% | > 80% | > 80%
COc1cc(F)ccc1[C@@H](OCC1CC1)[C@H](C)OC(=O)[C@H](C)NC(=O)c1nccc(OC)c1O [Example 289] |  |  |  |  | > 80% | > 80% | > 80% | > 80%
COc1cc(F)ccc1[C@@H](OC(=O)C(C)(C)C)[C@H](C)OC(=O)[C@H](C)NC(=O)c1nccc(OC)c1O [Example 290] |  |  |  |  | > 80% | > 80% | > 80% | > 80%
COc1cc(F)ccc1[C@@H](OC(=O)C1CC1)[C@H](C)OC(=O)[C@H](C)NC(=O)c1nccc(OC)c1O [Example 291] |  |  |  |  | < 0% | > 80% | < 80% | < 80%

Source: patent publication US20180002288A1, “USE OF PICOLINAMIDES AS FUNGICIDES” (DOW AGROSCIENCES LLC, priority 2014, published 2018)
